Measured values from patent US10227331B2 (priority 2015, dated 2019).

Assays:
[1] = system: Serratia marcescens expressing IMP-1 (CL5741); assay type: cell-based; conditions: with imipenem 1 μg/ml, 95% inhibition of bacterial growth; for Serratia marcescens MITC95: IMP-1 (CL5741)
Experimental: (§1) Antibiotic Potentiation Activity: Determination of Synergistic Concentration
(§2) The bacterial strains tested included the clinical strains Escherichia coli expressing NDM-1 (CLB30005, CLB30016), Serratia marcescens expressing IMP-1 (CL5741), and Klebsiella pneumoniae expressing VIM-1 (IHMA599644). Inhibitor activity was measured in the presence and absence of imipenem in a 384-well microplate.
(§3) The clinical strains CLB30016, CL5741 and IHMA599644 were grown on trypticase soy agar containing 5% sheep's blood. The bacteria on agar plates were incubated at 35° C. with humidity overnight. The following day, individual colonies from each clinical strain were picked and resuspended in 5 ml saline to attain an OD600 of […], for CLB30016, CL5741 and IHMA599644, respectively. These were further diluted 1:100 into 1.1×CAMHB and used to inoculate the test wells as described below.
(§4) Imipenem in 10 mM 3-(N-morpholino)propanesulfonic acid (MOPS, pH 7) was stored in single use aliquots at −80° C. […] On the day of the assay, 4 μl of antibiotic was added to 45 ul of bacteria followed by 1 μl of test compound and mixed by pipetting and with an orbital shaker. The concentration of antibiotic used in the assay was 1 μg/ml. Microplates were covered and incubated at 35° C. for 22 hours to 24 hours. At the end of the incubation, absorbance was determined using a spectrophotometer.
(§5) For example, in general, the compounds of Examples 1-379 were determined to restore susceptibility to imipenem for one or more of the test organisms at concentrations of 100 μM or less.

[2] = system: Klebsiella pneumoniae expressing VIM-1 (IHMA599644); assay type: cell-based; conditions: with imipenem 1 μg/ml, 95% inhibition of bacterial growth; for Klebsiella pneumoniae MITC95: VIM-1 (IHMA599644)
Experimental: as §1, §2, §3, §4, §5

[3] = system: Escherichia coli expressing NDM-1 (CLB30005, CLB30016); assay type: cell-based; conditions: with imipenem 1 μg/ml, 95% inhibition of bacterial growth; for Escherichia coli MITC95: NDM-1 (CLB30016)
Experimental: as §1, §2, §3, §4, §5

VIM-1 = VIM-1 (Pseudomonas aeruginosa (strain ATCC 15692 / DSM 22644 / CIP 104116 / JCM 14847 / LMG 12228 / 1C / PRS 101 / PAO1), UniProt A0A0F7KYQ8); experiment: biochemical; conditions: CCF2-FA substrate, 2 hours at 25° C
Experimental: Enzyme Activity: Determination of IC50
The Class B enzyme activities were measured in the presence of the test inhibitor in a fluorescence assay against a commercially available substrate consisting of a cephalosporin core linking 7-hydroxycoumarin to fluorescein (CCF2-FA). […] In a 384-well microplate, the test inhibitor was incubated with the metallo-β-lactamase enzyme and the substrate for 2 hours at 25° C. […] The IC50 value was determined from semi-logarithmic plots of enzyme inhibition versus inhibitor concentration, with a curve generated using a 4-parameter fit.

[4] = system: P. aeruginosa expressing IMP-1, efflux+ (MB9798); assay type: cell-based, Pseudomonas aeruginosa; conditions: for P. aeruginosa expressing IMP-1, efflux+ (MB9798) MITC95: imipenem at 2 μg/mL, in the presence of a class A, C, D serine β-lactamase inhibitor closely related to relebactam; for Efflux ratio: ratio MITC95 PA_9798/MITC95 PA_9799
Text: (§6) The strain background is Pseudomonas aeruginosa PAO1.

[5] = system: P. aeruginosa expressing IMP-1, efflux− (MB9799); experiment: Efflux: concentration of MBL inhibitor which restores susceptibility to imipenem; assay type: cell-based, Pseudomonas aeruginosa; conditions: imipenem at 2 μg/mL, in the presence of a class A, C, D serine β-lactamase inhibitor closely related to relebactam
Text: as §6

| SMILES | Serratia marcescens expressing IMP-1 (CL5741) MITC95 [1] | Klebsiella pneumoniae expressing VIM-1 (IHMA599644) MITC95 [2] | Escherichia coli expressing NDM-1 (CLB30016) MITC95 [3] | IC50 (VIM-1) | P. aeruginosa expressing IMP-1, efflux+ (MB9798) MITC95 [4] | Efflux ratio [4] | P. aeruginosa expressing IMP-1, efflux− (MB9799) MITC95 [5] | Serratia marcescens MITC95 [1] | Klebsiella pneumoniae MITC95 [2] | Escherichia coli MITC95 [3] |
| --- | --- | --- | --- | --- | --- | --- | --- | --- | --- | --- |
| NS(=O)(=O)c1c(S(=O)(=O)C2CNC2)ccc(-c2ccc(O)nc2)c1-c1nnn[nH]1.O=C(O)C(F)(F)F [Example 109, 3-((4-(6-hydroxypyridin-3-yl)-2-sulfamoyl-3-(1H-tetrazol-5-yl)phenyl)sulfonyl)azetidin-1-ium 2,2,2-trifluoroacetate] | 1.563 µM | 3.125 µM | 0.7813 µM | 1440 pM | 12.5 µM | 8.00 | 1.563 µM |  |  |  |
| NCc1cncc(-c2ccc(S(=O)(=O)C3CNC3)c(S(N)(=O)=O)c2-c2nnn[nH]2)c1.O=C(O)C(F)(F)F [Example 107, 3-((4-(5-(aminomethyl)pyridin-3-yl)-2-sulfamoyl-3-(1H-tetrazol-5-yl)phenyl)sulfonyl)azetidin-1-ium 2,2,2-trifluoroacetate] | 6.25 µM | 3.125 µM | 1.563 µM | 28300 pM | 12.5 µM | 4.00 | 3.125 µM |  |  |  |
| NC[C@H](O)CS(=O)(=O)c1ccc(-c2cccnc2N)c(-c2nn[nH]n2)c1S(N)(=O)=O [Example 368, (S)-6-((3-amino-2-hydroxypropyl)sulfonyl)-3-(2-aminopyridin-3-yl)-2-(2H-tetrazol-5-yl) benzenesulfonamide] |  |  |  | 561 pM | 1.563 µM | 1.33 | 1.172 µM | 0.7813 µM | 2.344 µM | 0.1953 µM |
| NCCS(=O)(=O)c1ccc(-c2ccnc3nc(N)[nH]c23)c(-c2nnn[nH]2)c1S(N)(=O)=O [Example 303, 3-(2-amino-1H-imidazo[4,5-b]pyridin-7-yl)-6-((2-aminoethyl)sulfonyl)-2-(1H-tetrazol-5-yl)benzenesulfonamide] |  |  |  | 11300 pM | 100 µM | 32.00 | 3.125 µM | 6.25 µM | 3.125 µM | 3.125 µM |
| Nc1nc2cc(F)cc(-c3ccc(S(=O)(=O)C4CNC4)c(S(N)(=O)=O)c3-c3nnn[nH]3)c2[nH]1 [Example 296, 3-(2-amino-5-fluoro-1H-benzo[d]imidazol-7-yl)-6-(azetidin-3-ylsulfonyl)-2-(1H-tetrazol-5-yl)benzenesulfonamide] |  |  |  | 227 pM | 0.7813 µM | 1.00 | 0.7813 µM | 0.7813 µM | 1.172 µM | 0.5859 µM |
| C[C@@H](CN)S(=O)(=O)c1ccc(-c2cccc3nc(N)[nH]c23)c(-c2nn[nH]n2)c1S(N)(=O)=O [Example 278, 3-(2-amino-3H-benzo[d]imidazol-4-yl)-6-((S)-1-aminopropan-2-ylsulfonyl)-2-(2H-tetrazol-5-yl)benzenesulfonamide] |  |  |  | 365 pM | 1.563 µM | 2.00 | 0.7813 µM | 0.7813 µM | 1.563 µM | 0.3906 µM |
| NS(=O)(=O)c1c(S(=O)(=O)C2CNC2)ccc(C2=CC3C=NNC3N=C2)c1-c1nnn[nH]1.O=C(O)C(F)(F)F (stereo not drawn) [Example 108, 3-((4-(3a,7a-dihydro-1H-pyrazolo[3,4-b]pyridin-5-yl)-2-sulfamoyl-3-(1H-tetrazol-5-yl)phenyl)sulfonyl)azetidin-1-ium 2,2,2-trifluoroacetate] | 3.125 µM | 6.25 µM | 6.25 µM | 612 pM | 25 µM | 15.99 | 1.563 µM |  |  |  |
| CNc1ncc(-c2ccc(S(=O)(=O)C3CNC3)c(S(N)(=O)=O)c2-c2nnn[nH]2)cn1.O=C(O)C(F)(F)F [Example 106, 3-((4-(2-(methylamino)pyrimidin-5-yl)-2-sulfamoyl-3-(1H-tetrazol-5-yl)phenyl)sulfonyl)azetidin-1-ium 2,2,2-trifluoroacetate] | 3.125 µM | 6.25 µM | 12.5 µM | 1590 pM | 6.25 µM | 4.00 | 1.563 µM |  |  |  |
| NC[C@@H](O)CS(=O)(=O)c1ccc(-c2cccnc2N)c(-c2nn[nH]n2)c1S(N)(=O)=O [Example 367, (R)-6-((3-amino-2-hydroxypropyl)sulfonyl)-3-(2-aminopyridin-3-yl)-2-(2H-tetrazol-5-yl) benzenesulfonamide] |  |  |  | 703 pM | 1.563 µM | 1.00 | 1.563 µM | 0.7813 µM | 1.563 µM | 0.1953 µM |
| Nc1cnccc1-c1ccc(S(=O)(=O)C2CNC2)c(S(N)(=O)=O)c1-c1nnn[nH]1.O=C(O)C(F)(F)F [Example 105, 3-((4-(3-aminopyridin-4-yl)-2-sulfamoyl-3-(1H-tetrazol-5-yl)phenyl)sulfonyl)azetidin-1-ium 2,2,2-trifluoroacetate] | 1.563 µM | 3.125 µM | 3.125 µM | 759 pM | 3.125 µM | 2.00 | 1.563 µM |  |  |  |
| NS(=O)(=O)c1c(S(=O)(=O)C2CNC2)ccc(-c2cccc3c2C(=O)NS3(=O)=O)c1-c1nn[nH]n1 [Example 249, 6-(Azetidin-3-ylsulfonyl)-3-(1,1-dioxido-3-oxo-2,3-dihydrobenzo[d]isothiazol-4-yl)-2-(2H-tetrazol-5-yl)benzenesulfonamide] |  |  |  | 322 pM | 12.5 µM | 2.00 | 6.25 µM | 6.25 µM | 25 µM | 6.25 µM |
| NS(=O)(=O)c1c(S(=O)(=O)C2CNC2)ccc(-c2ccc(CO)nc2)c1-c1nnn[nH]1.O=C(O)C(F)(F)F [Example 111, 3-((4-(6-(hydroxymethyl)pyridin-3-yl)-2-sulfamoyl-3-(1H-tetrazol-5-yl)phenyl)sulfonyl)azetidin-1-ium 2,2,2-trifluoroacetate] | 3.125 µM | 6.25 µM | 3.125 µM | 960 pM | 6.25 µM | 4.00 | 1.563 µM |  |  |  |
